According to patent publication US7893199B2, “Peptides having neutrophil-stimulating activity” (National University Corporation Gunma University, priority 2006, dated 2011):
Where no end group is shown, it is not given here. The star is where a group is joined. Biotin = O=C1N[C@H]2[C@H](CS[C@H]2CCCCC(=O)*)N1

Assays:
bovine Gi1-G protein = biological target: T1, bovine Gi1-G protein (Bos taurus, UniProt P63097); assay: G protein activation ability (GTP hydrolysis) with purified Gi1; type: biochemical
T1 construct: made in house; host or cells: E. coli

[1] = tested on: G protein in the differentiated HL-60 cell membrane fraction; assay: G protein activation ability (GTP hydrolysis) in cell membrane fraction; type: biochemical, human
Protocol: (4) Measurement of G Protein Activation Ability
The cells were collected by centrifuging the suspension of the differentiated HL-60 cells (1,000 rpm, 5 minutes, 4° C.). After that, the following operation was repeated three times to wash the cells: ice-cooled PBS was added to the cells; the mixture was suspended by inversion; and the mixture was centrifuged (1,000 rpm, 5 minutes, 4° C.). Then, the precipitated cells were suspended in a buffer for preparing a cell membrane fraction (20 mM Tris-HCl, 250 mM sucrose, 1.5 mM MgCl2, 3 mM benzamidine hydrochloride monohydrate, 1 μM leupeptin, 1 μM PMSF, 2 μg/ml trypsin inhibitor, pH 7.5) and a cell homogenate was prepared using nitrogen pressing-depressing type cell homogenizing apparatus (nitrogen pressure: 350 psi). After that, the resultant was ultracentrifuged (20,000 g, 4° C., 30 minutes) to remove the supernatant, and the precipitate was suspended in a membrane fraction buffer (20 mM Tris-HCl, 1 mM EDTA, 1 mM DTT, 77.5 mTIU/ml aprotinin, pH 7.5) and used as a cell membrane fraction. After dispensed, the cell membrane fraction was stored at −80° C. The activity of the G protein was quantified using the activity to hydrolyze GTP to GDP as an index. […] The mixture was centrifuged (15,000 rpm, 1 minute, 4° C.), and the radioactivity of the supernatant was measured.

[2] = tested on: differentiated HL-60 cells; assay: migration activity (Chemotaxis Index) of differentiated HL-60 cells; type: cell-based, human
Protocol: (3) Measurement of Migration Activity
The cells were collected by centrifuging the suspension of the differentiated HL-60 cells (1,000 rpm, 5 minutes, 4° C.). After that, the following operation was repeated three times to wash the cells: 10% FBS-RPMI1640 was added to the cells; the mixture was suspended by inversion; and the mixture was centrifuged again (1,000 rpm, 5 minutes, 4° C.). Then, a medium (10% FBS-RPMI1640) was added so that a cell density was 4×10^6 cells/ml, thereby a cell suspension was prepared. Subsequently, 1 ml of each peptide solution (dissolved in 10% FBS-RPMI 1640) was transferred to each well of a 24-well plate, and the plate was incubated at 37° C. for 20 minutes. After that, 500 μl of the cell suspension (2×10^6 cells) were put in Chemotaxicell (KURABO […] LTD., 3 μm) and the Chemotaxicell was set in a plate, followed by incubation in the presence of 5% CO2 at 37° C. for 1 hour. Then, the Chemotaxicell was removed and the solution in each well of the plate was pipetted. The cells migrated to the plate side was suspended well and the number of the cells were measured. Note that the migration activity by the peptide was represented by a ratio of the number of the cells to the number of the cells passing the Chemotaxicell at the time of non-stimulation (Chemotaxis Index, CI).

[3] = tested on: HL-60 cells differentiated into the neutrophil-like cells; assay: β-hexosaminidase-secreting activity of neutrophil-like differentiated HL-60 cells; type: cell-based, human; conditions: differentiated HL-60 cells; read-out: EC50, β-hexosaminidase-secreting activity
Description: (1) Culture of Cell and Differentiation Into Neutrophil-like Cell
In this time, the cells were subcultured at a cell density of 1.0×10^5 cells/ml to 1.5×10^6 cells/ml, the number of cells was counted using a microscope, and the state of the cells was also confirmed.
The HL-60 cells were differentiated into neutrophil-like cells by setting the cell density in the flask to about 1.0×10^6 cells/ml, adding dibutylyl-cAMP (db-cAMP) as a differentiation-inducing agent so as to have a final concentration of 500 μM, and incubating the cells in the presence of CO2 at 37° C. for 3 days.
(2) Stimulation of Cell and Measurement of β-Hexosaminidase-secreting Activity
The cells were collected by centrifuging the suspension of the differentiated HL-60 cells (1,000 rpm, 5 minutes, 4° C.). After that, the following operation was repeated three times to wash the cells: Hepes buffered Hank's solution (HBHS) containing ice-cooled 0.1% BSA (1.2 mM CaCl2.2H2O, 5.4 mM KCl, 0.44 mM KH2PO4, 0.49 mM MgCl2.6H2O, 0.41 mM MgSO4.7H2O, 136.9 mM NaCl, 0.34 mM Na2HPO4, 10 mM Hepes, 4.2 mM NaHCO3, 5.5 mM D-glucose, pH 7.4) was added to the cells; the mixture was suspended by inversion; and the mixture was centrifuged again (1,000 rpm, 5 minutes, 4° C.). Subsequently, HBHS was added so that the mixture has a cell density of 5.6×10^6 cells/ml and suspended. Then, DNase I and cytochalasin B were each added so as to have a final concentration of 5 μg/ml, and the cell suspension was dispensed in an amount of 90 μl (5×10^5 cells) on ice. […] After the cell stimulation for 10 minutes, 100 μl of an ice-cooled stop solution (25 mM Tris, 123 mM NaCl, 2.7 mM KCl, pH 7.4) were added, and immediately, the mixture was centrifuged (5,000 rpm, 1 minute, 4° C.). 200 μl of the obtained supernatant were transferred to a new tube.
The amount of β-hexosaminidase released in the supernatant of the reaction solution was measured by an enzyme reaction using p-nitrophenyl-N-acetyl-μ-D-glucosaminide as a substrate (Non-patent Document 12). That is, the supernatant of the reaction solution was dispensed in an amount of 90 μl to a 96-well plate. 60 μl of a substrate solution (10 mM p-nitrophenyl-N-acetyl-μ-D-glucosaminide, 40 mM citrate, 70 mM Na2HPO4, pH 4.5) were added to each well, followed by incubation at 37° C. for 1 hour. After the reaction, 100 μl of a stop solution (0.4 M glycine, pH 10.7) were added to each well and a color of the released p-nitrophenol was developed. The color development was measured with a plate reader at adsorption at 405 nm (reference: 492 nm). The all amount of β-hexosaminidase contained in the cells was quantified by treating the cells with Triton X-100 having a final concentration of 0.05%. In addition, the amount of β-hexosaminidase secreted by stimulation of 10 μM fMLP was also measured, and the ratio of the secretion amount by stimulation with each peptide to the above sectretion amount by stimulation with fMLP.

[4] = biological target: T2, heat shock 70 kDa protein 8 isoform 1 (SEQ ID NO: 52) (Homo sapiens, UniProt P11142); assay: chemical crosslinking experiment, streptavidin beads, electrophoresis (receptor identification); type: binding; conditions: peptide 10 μM; for bands of specifically binding proteins in SDS gel electrophoresis: differentiated HL-60 cell lysate, silver stain
T2 construct: endogenous in cells; host or cells: neutrophil-like differentiated HL-60 cells
Protocol: Then, in order to identify directly the receptor molecules to which these functional peptides are bound, the following chemical crosslinking experiment was performed. That is, the HL-60 cells differentiated into the neutrophil-like cells were suspended in HBHS (not containing 0.1% BSA). The suspension was centrifuged (1,000 rpm, 5 minutes, 4° C.) and the supernatant was removed. The cells were suspended again in the HBHS not containing BSA so as to have the cell density of 5.6×10^6 cells/ml. The obtained cell suspension was preincubated at 37° C. for 10 minutes at first, and 1/10 volume of mitocryptide-3 and -5, [Cys^0]mitocryptide-3, [Cys^0]mitocryptide-5, [Cys^24]mitocryptide-3, and peptides obtained by introducing biotin into the N terminals thereof (N-biotinyl-mitocryptide-3, N-biotinyl-mitocryptide-5, N-biotinyl-[Cys^0]mitocryptide-3, N-biotinyl-[Cys^0]mitocryptide-5, and N-biotinyl-[Cys^24]mitocryptide-3) were added to have the final concentration of 10 μM, followed by incubation at 37° C. for 30 minutes. After that, the cell suspension was centrifuged (5,000 rpm, 4° C., 1 minute) and the supernatant was removed. The resultant cells were resuspended in HBHS not containing BSA and centrifuged again to wash the cells. 1 ml of a buffer for dissolving cells (100 mM NaCl, 20 mM Tris-HCl, 1 mM EDTA, 77.5 mTIU/ml aprotinin, 1 μM leupeptin, 1 μg/ml pepstatin A, 1 μg/ml phosphoramidone, 1% CHAPS, pH 7.5) with respect to 1 ml of the original cell suspension was added to the cell precipitate, and the mixture was incubated at 4° C. for 30 minutes to dissolve the cells, thereby a cell lysate was prepared. The cell lysate was centrifuged (15,000 rpm, 4° C., 15 minutes) and the supernatant was centrifuged again in the same condition. The obtained supernatant was incubated with streptavidin beads at 4° C. for 30 minutes, then, the beads were washed by centrifugation with the buffer for dissolving cells three times. Further, the beads were treated by heat at 100° C. for 10 minutes in the buffer for dissolving cells, and the mixture was centrifuged. The obtained supernatant was subjected to an SDS gel electrophoresis to separate the contained protein. Then, the gel was stained by silver stain method, thereby the proteins were analyzed. […] As a result, two specific spots were detected (FIG. 15-A). Therefore, the protein was extracted and degraded with trypsin, and then, the degraded proteins were analyzed by mass spectrometry.

[5] = tested on: undifferentiated HL-60 cells; assay: binding of biotinylated peptides to cell surfaces (streptavidin-Alexa488 fluorescence microscopy); set-up: species or system human; conditions: peptide 10 μM, 37° C., 30 minutes
Protocol: (§1) Thus, it was confirmed that the synthesized functional peptide derivatives had the activities. Therefore, subsequently, in order to identify the binding sites of the functional peptides in the cells, these peptides (final concentration 10 μM) were incubated with the neutrophil-like differentiated HL-60 cells or undifferentiated HL-60 cells prepared in Example 3-(3) at 37° C. for 30 minutes. After that, the obtained cell suspension was centrifuged (1,000 rpm, 5 minutes, 4° C.) and the supernatant was removed. Further, HBHS was added and the mixture was centrifuged to wash the cells. Then, the cells were resuspended in HBHS. A streptavidin-HBHS labeled with a fluorescence, Alexa488 (Molecular probe, Invitrogen Corporation.) was added thereto, and the mixture was centrifuged, and the supernatant was removed. Further, the following operation was repeated three times to wash the cells: HBHS was added and the mixture was centrifuged.

[6] = tested on: neutrophil-like differentiated HL-60 cells; assay: as above; set-up: species or system human; conditions: peptide 10 μM, 37° C., 30 minutes
Protocol: as §1

T2 sequence (P11142 whole entry, canonical isoform): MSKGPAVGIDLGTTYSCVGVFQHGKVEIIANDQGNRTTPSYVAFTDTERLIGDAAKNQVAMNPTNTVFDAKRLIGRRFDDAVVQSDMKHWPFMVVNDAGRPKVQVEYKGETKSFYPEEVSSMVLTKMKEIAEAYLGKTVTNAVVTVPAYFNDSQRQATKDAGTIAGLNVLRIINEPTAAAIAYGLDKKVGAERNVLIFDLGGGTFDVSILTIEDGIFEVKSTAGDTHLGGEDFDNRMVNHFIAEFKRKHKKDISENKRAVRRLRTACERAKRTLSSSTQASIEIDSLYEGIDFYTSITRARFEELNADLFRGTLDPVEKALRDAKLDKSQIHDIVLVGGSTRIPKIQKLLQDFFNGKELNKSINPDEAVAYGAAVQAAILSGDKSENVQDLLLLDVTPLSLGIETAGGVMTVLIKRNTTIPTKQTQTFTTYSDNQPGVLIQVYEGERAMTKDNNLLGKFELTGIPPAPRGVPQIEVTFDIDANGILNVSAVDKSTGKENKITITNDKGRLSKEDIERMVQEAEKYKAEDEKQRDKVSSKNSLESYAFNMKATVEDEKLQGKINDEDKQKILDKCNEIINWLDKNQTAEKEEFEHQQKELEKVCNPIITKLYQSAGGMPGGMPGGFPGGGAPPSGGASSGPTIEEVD
T1 sequence (P63097 whole entry): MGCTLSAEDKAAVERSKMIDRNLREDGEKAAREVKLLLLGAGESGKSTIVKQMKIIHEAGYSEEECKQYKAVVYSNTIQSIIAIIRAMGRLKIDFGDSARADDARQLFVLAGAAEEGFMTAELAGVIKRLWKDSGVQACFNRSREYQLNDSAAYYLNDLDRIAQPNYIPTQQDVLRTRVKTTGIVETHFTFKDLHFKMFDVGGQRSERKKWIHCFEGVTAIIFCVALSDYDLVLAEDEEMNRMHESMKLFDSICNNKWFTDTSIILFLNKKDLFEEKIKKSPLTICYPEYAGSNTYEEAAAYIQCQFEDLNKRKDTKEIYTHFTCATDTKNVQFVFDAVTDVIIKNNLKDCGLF

Substance: MFPLVKSALNRLQVRSIQQTMARQ [No. 015]
- activation of purified Gi1 protein (bovine Gi1-G protein): activated
- activation of G protein [1]: activated
- concentration of migration activity compared with that of β-hexosaminidase-secreting activity [2]: confirmed at the almost same concentration
- desensitization of migration activity with increasing concentration of the peptide [2]: subjected to desensitization completely
- EC50 [3]: 380 nM

Substance: N-biotinyl-[Cys^0]mitocryptide-3: [Cys^0]mitocryptide-3 with biotin introduced into the N terminal (Biotin-CMLWNLLALHQIGQRTISTASHRH)
- bands of specifically binding proteins in SDS gel electrophoresis [4]: five bands indicating specific binding
- binding to cell surfaces [5]: less bound to the surfaces of the undifferentiated HL-60 cells
- binding to cell surfaces [6]: bound to the surfaces of the neutrophil-like differentiated HL-60 cells specifically

Substance: N-biotinyl-[Cys^0]mitocryptide-5: [Cys^0]mitocryptide-5 with biotin introduced into the N terminal (Biotin-CMFPLVKSALNRLQVRSIQQTMARQ)
- binding of heat shock 70 kDa protein 8 isoform 1 to the peptide ([4]; differentiated HL-60 cells): bound
- binding to cell surfaces [6]: bound to the surfaces of the cells specifically

Substance: N-biotinyl-Cys-Gln-Leu-Trp-Ala-Val-Gly-Ser-Phe-Met-NH2 (Biotin-CQLWAVGSFM-NH2; SMILES CSCC[C@H](NC(=O)[C@H](Cc1ccccc1)NC(=O)[C@H](CO)NC(=O)CNC(=O)[C@@H](NC(=O)[C@H](C)NC(=O)[C@H](Cc1c[nH]c2ccccc12)NC(=O)[C@H](CC(C)C)NC(=O)[C@H](CCC(N)=O)NC(=O)[C@H](CS)NC(=O)CCCC[C@@H]1SC[C@@H]2NC(=O)N[C@@H]21)C(C)C)C(N)=O) [reference compound]
- binding to cell surfaces [6]: no binding was confirmed at all

Substance: N-biotinyl-[Cys^24]mitocryptide-3: [Cys^24]mitocryptide-3 with biotin introduced into the N terminal (Biotin-MLWNLLALHQIGQRTISTASHRHC)
- bands of specifically binding proteins in SDS gel electrophoresis [4]: five bands indicating specific binding
